{"source": "paper PMC3702614", "about": "“Dietary Compound Isoliquiritigenin Inhibits Breast Cancer Neoangiogenesis via VEGF/VEGFR-2 Signaling Pathway” (PLoS ONE, 2013)", "molecular_target": "T1, VEGFR-2 (Homo sapiens, UniProt P35968)", "T1 construct": "gene KDR; biotin-labeled VEGFR-2 (Prospec)", "T1 sequence (P35968 20-1356)": "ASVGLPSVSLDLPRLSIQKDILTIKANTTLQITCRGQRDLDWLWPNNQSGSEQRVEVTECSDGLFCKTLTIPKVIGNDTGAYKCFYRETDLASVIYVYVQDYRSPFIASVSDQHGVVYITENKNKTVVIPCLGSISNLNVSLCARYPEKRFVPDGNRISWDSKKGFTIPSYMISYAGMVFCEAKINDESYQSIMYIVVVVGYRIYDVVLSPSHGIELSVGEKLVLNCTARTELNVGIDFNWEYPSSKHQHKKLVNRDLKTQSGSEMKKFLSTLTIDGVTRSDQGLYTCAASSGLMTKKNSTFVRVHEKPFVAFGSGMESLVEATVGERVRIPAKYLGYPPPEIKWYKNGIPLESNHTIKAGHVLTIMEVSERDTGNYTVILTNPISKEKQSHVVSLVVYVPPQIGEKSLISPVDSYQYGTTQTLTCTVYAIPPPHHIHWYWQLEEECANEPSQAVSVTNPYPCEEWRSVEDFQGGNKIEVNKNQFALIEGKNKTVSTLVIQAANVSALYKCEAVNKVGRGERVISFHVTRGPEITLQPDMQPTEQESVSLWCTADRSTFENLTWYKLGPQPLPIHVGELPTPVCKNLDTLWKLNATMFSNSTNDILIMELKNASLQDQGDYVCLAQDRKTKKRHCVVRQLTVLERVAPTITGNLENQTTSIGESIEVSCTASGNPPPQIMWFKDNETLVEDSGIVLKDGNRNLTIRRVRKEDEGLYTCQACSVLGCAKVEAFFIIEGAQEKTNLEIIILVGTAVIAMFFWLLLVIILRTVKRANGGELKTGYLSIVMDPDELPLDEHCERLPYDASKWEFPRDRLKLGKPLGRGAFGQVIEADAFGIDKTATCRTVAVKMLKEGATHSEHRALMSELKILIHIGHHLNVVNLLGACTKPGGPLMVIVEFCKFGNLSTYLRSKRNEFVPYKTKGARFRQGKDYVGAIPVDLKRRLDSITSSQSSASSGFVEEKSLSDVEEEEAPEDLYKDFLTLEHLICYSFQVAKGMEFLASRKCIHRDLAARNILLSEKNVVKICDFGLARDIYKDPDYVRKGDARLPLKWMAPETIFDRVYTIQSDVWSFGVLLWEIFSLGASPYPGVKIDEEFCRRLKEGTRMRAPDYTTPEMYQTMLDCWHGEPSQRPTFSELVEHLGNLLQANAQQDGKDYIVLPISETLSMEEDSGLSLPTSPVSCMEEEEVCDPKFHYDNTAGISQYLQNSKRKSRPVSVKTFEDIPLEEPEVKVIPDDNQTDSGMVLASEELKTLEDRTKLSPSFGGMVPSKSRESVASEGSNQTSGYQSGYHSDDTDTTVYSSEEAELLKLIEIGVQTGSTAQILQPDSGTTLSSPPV", "experiment": "in vitro tyrosine kinase ELISA", "format": "biochemical"}
{"smiles": "O=C(/C=C/c1ccc(O)cc1)c1ccc(O)cc1O", "note": "[ISL, Isoliquiritigenin]", "values": [{"measurement": "IC50", "value": "~100", "unit": "nM"}]}
